Experimental data as given in PubChem BioAssay (NCI).
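These data come from cells grown in 96-well plates and exposed to compound for 48 hours at five concentrations. TGI is the concentration that stops growth completely.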

Legend:
Experiment in all cases: growth of human tumour cells (NCI), 48 h
[1] = tested on: 786-0 renal
[2] = tested on: A498 renal
[3] = tested on: A549 NSCLC
[4] = tested on: ACHN renal
[5] = tested on: BT-549 breast
[6] = tested on: CAKI-1 renal
[7] = tested on: CCRF-CEM leukemia
[8] = tested on: COLO 205 colon
[9] = tested on: DU-145 prostate
[10] = tested on: EKVX NSCLC
[11] = tested on: HCC-2998 colon
[12] = tested on: HCT-116 colon
[13] = tested on: HCT-15 colon
[14] = tested on: HL-60(TB) leukemia
[15] = tested on: HOP-62 NSCLC
[16] = tested on: HOP-92 NSCLC
[17] = tested on: HS 578T breast
[18] = tested on: HT29 colon
[19] = tested on: IGROV1 ovarian
[20] = tested on: K-562 leukemia
[21] = tested on: KM12 colon
[22] = tested on: LOX IMVI melanoma
[23] = tested on: M14 melanoma
[24] = tested on: MALME-3M melanoma
[25] = tested on: MCF7 breast
[26] = tested on: MDA-MB-231 breast
[27] = tested on: MDA-MB-435
[28] = tested on: MDA-N
[29] = tested on: MOLT-4 leukemia
[30] = tested on: NCI-H226 lung
[31] = tested on: NCI-H23 lung
[32] = tested on: NCI-H460 lung
[33] = tested on: NCI-H522 lung
[34] = tested on: NCI/ADR-RES ovarian
[35] = tested on: OVCAR-3 ovarian
[36] = tested on: OVCAR-4 ovarian
[37] = tested on: OVCAR-5 ovarian
[38] = tested on: OVCAR-8 ovarian
[39] = tested on: PC-3 prostate
[40] = tested on: RXF 393 renal
[41] = tested on: SF-268 CNS
[42] = tested on: SF-295 CNS
[43] = tested on: SF-539 CNS
[44] = tested on: SK-MEL-28 melanoma
[45] = tested on: SK-MEL-5 melanoma
[46] = tested on: SK-OV-3 ovarian
[47] = tested on: SN12C renal
[48] = tested on: SR leukemia
[49] = tested on: T-47D breast
[50] = tested on: TK-10 renal
[51] = tested on: U251 CNS
[52] = tested on: UACC-257 melanoma
[53] = tested on: UACC-62 melanoma
[54] = tested on: UO-31 renal
[55] = tested on: RPMI-8226 leukemia
[56] = tested on: SK-MEL-2 melanoma
[57] = tested on: SNB-19 CNS
[58] = tested on: SNB-75 CNS
[59] = tested on: SW-620 colon

SMILES: CCN(CCO)CC1COc2ccccc2O1 (centres undefined)
- TGI [1]: > 100 µM
- TGI [2]: > 100 µM
- TGI [3]: > 100 µM
- TGI [4]: > 100 µM
- TGI [5]: > 100 µM
- TGI [6]: > 100 µM
- TGI [7]: > 100 µM
- TGI [8]: > 100 µM
- TGI [9]: > 100 µM
- TGI [10]: > 100 µM
- TGI [11]: > 100 µM
- TGI [12]: > 100 µM
- TGI [13]: > 100 µM
- TGI [14]: > 100 µM
- TGI [15]: > 100 µM
- TGI [16]: > 100 µM
- TGI [17]: > 100 µM
- TGI [18]: > 100 µM
- TGI [19]: > 100 µM
- TGI [20]: > 100 µM
- TGI [21]: > 100 µM
- TGI [22]: > 100 µM
- TGI [23]: > 100 µM
- TGI [24]: > 100 µM
- TGI [25]: > 100 µM
- TGI [26]: > 100 µM
- TGI [27]: > 100 µM
- TGI [28]: > 100 µM
- TGI [29]: > 100 µM
- TGI [30]: > 100 µM
- TGI [31]: > 100 µM
- TGI [32]: > 100 µM
- TGI [33]: > 100 µM
- TGI [34]: > 100 µM
- TGI [35]: > 100 µM
- TGI [36]: > 100 µM
- TGI [37]: > 100 µM
- TGI [38]: > 100 µM
- TGI [39]: > 100 µM
- TGI [40]: > 100 µM
- TGI [41]: > 100 µM
- TGI [42]: > 100 µM
- TGI [43]: > 100 µM
- TGI [44]: > 100 µM
- TGI [45]: > 100 µM
- TGI [46]: > 100 µM
- TGI [47]: > 100 µM
- TGI [48]: > 100 µM
- TGI [49]: > 100 µM
- TGI [50]: > 100 µM
- TGI [51]: > 100 µM
- TGI [52]: > 100 µM
- TGI [53]: > 100 µM
- TGI [54]: > 100 µM

SMILES: C(=N\NC1=NCCCN1)/c1ccc2ccccc2c1
- TGI [1]: 24.2 µM
- TGI [2]: 20.8 µM
- TGI [3]: 22.4 µM
- TGI [4]: 22.2 µM
- TGI [5]: 32.5 µM
- TGI [7]: 43.8 µM
- TGI [8]: 19.3 µM
- TGI [9]: 24.2 µM
- TGI [10]: 32.8 µM
- TGI [11]: 10.5 µM
- TGI [12]: 22.4 µM
- TGI [13]: 29.1 µM
- TGI [14]: 21 µM
- TGI [15]: 26.5 µM
- TGI [16]: 25.1 µM
- TGI [17]: 41.3 µM
- TGI [18]: 23 µM
- TGI [19]: 32.1 µM
- TGI [20]: 12.6 µM
- TGI [21]: 28 µM
- TGI [22]: 21 µM
- TGI [23]: 22.1 µM
- TGI [24]: 33.2 µM
- TGI [25]: 15.8 µM
- TGI [26]: 20 µM
- TGI [27]: 18.7 µM
- TGI [28]: 22.5 µM
- TGI [29]: 5.02 µM
- TGI [30]: 27.1 µM
- TGI [31]: 36.6 µM
- TGI [32]: 17.4 µM
- TGI [33]: 32.4 µM
- TGI [34]: 76.1 µM
- TGI [35]: 32.2 µM
- TGI [36]: 39.3 µM
- TGI [37]: 21.8 µM
- TGI [38]: 29.3 µM
- TGI [39]: 25.5 µM
- TGI [55]: 28.3 µM
- TGI [40]: 30.3 µM
- TGI [41]: 30.2 µM
- TGI [42]: 24.7 µM
- TGI [43]: 31.1 µM
- TGI [56]: 28.2 µM
- TGI [44]: 31.9 µM
- TGI [45]: 10.3 µM
- TGI [46]: 23.6 µM
- TGI [47]: 26.6 µM
- TGI [57]: 31.8 µM
- TGI [58]: 18.4 µM
- TGI [59]: 28.4 µM
- TGI [49]: 33 µM
- TGI [50]: 36.8 µM
- TGI [51]: 19.8 µM
- TGI [52]: 42.5 µM
- TGI [53]: 30 µM
- TGI [54]: 23.8 µM

SMILES: C/C=C/C=C/c1nc(C#N)c(N)o1
- TGI [1]: > 100 µM
- TGI [3]: > 100 µM
- TGI [4]: > 100 µM
- TGI [5]: > 100 µM
- TGI [6]: > 100 µM
- TGI [7]: > 100 µM
- TGI [8]: > 100 µM
- TGI [9]: > 100 µM
- TGI [10]: > 100 µM
- TGI [11]: > 100 µM
- TGI [12]: > 100 µM
- TGI [13]: > 100 µM
- TGI [15]: > 100 µM
- TGI [16]: > 100 µM
- TGI [17]: > 100 µM
- TGI [18]: > 100 µM
- TGI [19]: > 100 µM
- TGI [20]: > 100 µM
- TGI [22]: > 100 µM
- TGI [23]: > 100 µM
- TGI [24]: > 100 µM
- TGI [25]: > 100 µM
- TGI [26]: > 100 µM
- TGI [27]: > 100 µM
- TGI [28]: > 100 µM
- TGI [29]: > 100 µM
- TGI [30]: > 100 µM
- TGI [31]: > 100 µM
- TGI [33]: > 100 µM
- TGI [34]: > 100 µM
- TGI [35]: > 100 µM
- TGI [36]: > 100 µM
- TGI [37]: > 100 µM
- TGI [38]: > 100 µM
- TGI [39]: > 100 µM
- TGI [55]: > 100 µM
- TGI [40]: > 100 µM
- TGI [41]: > 100 µM
- TGI [42]: > 100 µM
- TGI [43]: > 100 µM
- TGI [56]: > 100 µM
- TGI [44]: > 100 µM
- TGI [46]: > 100 µM
- TGI [47]: > 100 µM
- TGI [57]: > 100 µM
- TGI [58]: > 100 µM
- TGI [48]: > 100 µM
- TGI [59]: > 100 µM
- TGI [49]: > 100 µM
- TGI [50]: > 100 µM
- TGI [51]: > 100 µM
- TGI [52]: > 100 µM
- TGI [53]: > 100 µM
- TGI [54]: > 100 µM

SMILES: O=[N+]([O-])/C(C(Cl)=C(Cl)Cl)=C(\Nc1cccc2cccnc12)SCc1ccccc1
- TGI [1]: 47.3 µM
- TGI [2]: 50.6 µM
- TGI [3]: 88.4 µM
- TGI [4]: 64.4 µM
- TGI [5]: 35.6 µM
- TGI [6]: 43.3 µM
- TGI [7]: 97.4 µM
- TGI [8]: 33.5 µM
- TGI [9]: 39.6 µM
- TGI [10]: 49.1 µM
- TGI [11]: 36.7 µM
- TGI [12]: 36.1 µM
- TGI [13]: 43.4 µM
- TGI [15]: 33.6 µM
- TGI [17]: 19.3 µM
- TGI [18]: 48.5 µM
- TGI [20]: 56.9 µM
- TGI [21]: 50.4 µM
- TGI [23]: 74.3 µM
- TGI [24]: 28.9 µM
- TGI [25]: 36.5 µM
- TGI [26]: > 100 µM
- TGI [27]: 37.7 µM
- TGI [28]: > 100 µM
- TGI [29]: 14.4 µM
- TGI [30]: 48.6 µM
- TGI [31]: 32.7 µM
- TGI [32]: 55.3 µM
- TGI [34]: 51.7 µM
- TGI [35]: 32.8 µM
- TGI [36]: 46 µM
- TGI [37]: 78.9 µM
- TGI [39]: 36.5 µM
- TGI [55]: > 100 µM
- TGI [41]: 42.3 µM
- TGI [42]: 37.4 µM
- TGI [43]: 32.6 µM
- TGI [56]: 41 µM
- TGI [44]: 33.9 µM
- TGI [46]: 43.4 µM
- TGI [47]: 60.7 µM
- TGI [57]: 42 µM
- TGI [58]: 40.9 µM
- TGI [59]: 36.8 µM
- TGI [49]: 40.2 µM
- TGI [51]: 33.2 µM
- TGI [52]: 49.2 µM
- TGI [53]: 63.7 µM
- TGI [54]: 38.1 µM
